Data on one compound can be found in US20110117193A1, “ANTIRETROVIRAL DRUG FORMULATIONS FOR TREATMENT OF CHILDREN EXPOSED TO HIV/AIDS” (priority 2008, published 2011).

A short description of the data set: pH of suspensions. It is filed as physicochemical. Particulars: 0.2% w/v solution in water. The procedure: The effect of the suspending agent and sweetener on the pH and viscosity of the suspensions was examined. AVICEL® RC 591, alone and in combination with other potential formulation components, was suspended in water. The pH of the suspensions was measured using a pH meter. The viscosity of the suspensions was measured on a Brookfield […] RV series viscometer: spindle size 4 at 20 rpm was used. The suspensions were visually inspected for signs of precipitation, sedimentation, and consistency.

Regarding `OC[C@H]1O[C@H](O[C@]2(CCl)O[C@H](CCl)[C@@H](O)[C@@H]2O)[C@H](O)[C@@H](O)[C@H]1Cl` [sucralose], the pH of solution was determined as 6.4.
